The values below are quoted from earlier work in US9932637B2, “Genetic polymorphisms associated with cardiovascular disorders and drug response, methods of detection and uses thereof” (CELERA CORPORATION, priority 2003, dated 2018).

The series concerns subjects with average cholesterol levels. As to conditions: AFCAPS/TexCAPS; cited from earlier work.

Molecules are shown by their SMILES.

With `CC[C@H](C)C(=O)O[C@H]1C[C@@H](C)C=C2C=C[C@H](C)[C@H](CC[C@@H]3C[C@@H](O)CC(=O)O3)[C@H]21` [lovastatin], the “LDL-C reduced (average)” value is given as 25% and the events decreased is given as 37%.
